# Measurements reported in patent US9783505B2, “Substituted diaminopyrimidyl compounds, compositions thereof, and methods of treatment therewith” (Signal Pharmaceuticals, LLC, priority 2013, dated 2017).
# Biological target: T1, His-PKC-theta (Homo sapiens, UniProt Q04759)
# T1 construct: His; purchased Invitrogen
# Assay: PKC-theta Assay (384-well time resolved fluorescence, IMAP TR-FRET)
# Assay type: biochemical
# Settings: Table 2; read-out: Act. Level (IC50 in the PKC-theta Assay)
# Summary of the method: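 Enzyme at 142 pM phosphorylated 200 nM Fam-S6 peptide with 10 μM ATP in 50 mM HEPES pH 7.6, 10 mM MgCl2, 1 mM DTT for 2 h at room temperature. Product was detected after overnight incubation with IMAP binding reagent and Tb donor by time-resolved FRET.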
# T1 sequence (Q04759 whole entry): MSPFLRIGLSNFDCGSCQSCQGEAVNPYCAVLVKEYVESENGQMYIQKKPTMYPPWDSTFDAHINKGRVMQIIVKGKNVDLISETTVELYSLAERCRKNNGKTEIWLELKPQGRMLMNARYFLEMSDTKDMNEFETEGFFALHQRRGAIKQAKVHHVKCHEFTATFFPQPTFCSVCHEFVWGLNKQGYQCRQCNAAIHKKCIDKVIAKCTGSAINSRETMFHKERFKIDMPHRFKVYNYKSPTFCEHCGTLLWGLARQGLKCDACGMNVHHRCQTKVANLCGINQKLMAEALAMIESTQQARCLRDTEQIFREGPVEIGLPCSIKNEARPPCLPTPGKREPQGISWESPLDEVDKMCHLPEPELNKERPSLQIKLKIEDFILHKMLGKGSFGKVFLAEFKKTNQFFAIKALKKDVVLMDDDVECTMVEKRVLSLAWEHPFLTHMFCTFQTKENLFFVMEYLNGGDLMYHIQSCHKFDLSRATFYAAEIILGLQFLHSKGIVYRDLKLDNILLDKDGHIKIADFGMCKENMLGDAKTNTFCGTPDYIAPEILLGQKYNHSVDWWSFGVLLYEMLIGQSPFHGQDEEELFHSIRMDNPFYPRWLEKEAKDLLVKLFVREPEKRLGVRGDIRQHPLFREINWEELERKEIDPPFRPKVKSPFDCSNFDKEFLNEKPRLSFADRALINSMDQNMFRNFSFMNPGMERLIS
row,IC50 [nM],SMILES
1,800 to 2000,CC1(C)[C@@H](O)C[C@H]1Nc1nc(NCCc2ccc(C#N)c(OC(F)(F)F)c2)ncc1C#N [Cmpd 143]
2,800 to 2000,CC1(C)C[C@H](Nc2nc(NCCc3ccc(C#N)c(OC(F)(F)F)c3)ncc2C#N)CC[C@@H]1O [Cmpd 144]
3,100 to 800,CC1(C)[C@@H](O)C[C@H]1Nc1nc(NCCc2ccc(C#N)c(Br)c2)ncc1C#N [Cmpd 145]
4,< 100,CC1(C)C[C@H](Nc2nc(NCCc3ccc(C#N)c(Br)c3)ncc2C#N)CC[C@@H]1O [Cmpd 146]
5,100 to 800,CC1(C)[C@@H](O)C[C@H]1Nc1nc(NCCc2ccc(C#N)c(F)c2)ncc1C#N [Cmpd 147]
6,100 to 800,CC1(C)C[C@H](Nc2nc(NCCc3ccc(C#N)c(F)c3)ncc2C#N)CC[C@@H]1O [Cmpd 148]
7,100 to 800,CC1(C)[C@@H](O)C[C@H]1Nc1nc(NCCc2ccccc2)ncc1C#N [Cmpd 149]
8,< 100,CC1(C)C[C@H](Nc2nc(NCCc3ccccc3)ncc2C#N)CC[C@@H]1O [Cmpd 150]
9,< 100,CC(F)(F)COc1ccc(CCNc2ncc(C#N)c(N[C@@H]3CC[C@H](O)C(C)(C)C3)n2)cc1 [Cmpd 151]
10,800 to 2000,CC(F)(F)COc1ccccc1CCNc1ncc(C#N)c(N[C@@H]2CC[C@H](O)C(C)(C)C2)n1 [Cmpd 152]
11,800 to 2000,CC1(C)C[C@H](Nc2nc(NCCc3ccc(C(=O)O)cc3)ncc2C#N)CC[C@@H]1O [Cmpd 153]
12,100 to 800,CC1(C)C[C@H](Nc2nc(NCCc3ccc(C(N)=O)cc3)ncc2C#N)CC[C@@H]1O [Cmpd 154]
13,100 to 800,CC(F)(F)COc1cccc(CCNc2ncc(C#N)c(N[C@@H]3CC[C@H](O)C(C)(C)C3)n2)c1 [Cmpd 155]
14,100 to 800,CC1(C)C[C@H](Nc2nc(NCCc3ccccc3C#N)ncc2C#N)CC[C@@H]1O [Cmpd 156]
15,100 to 800,CC1(C)[C@@H](Nc2nc(NCCc3cccc(Cl)c3)ncc2C#N)C[C@@H]1N [Cmpd 157]
16,800 to 2000,CC1(C)[C@H](N)C[C@H]1Nc1nc(NCCc2cccc(Cl)c2)ncc1C#N [Cmpd 158]

# Same assay, conditions: read-out: Act. Level (IC50 in the PKC-theta Assay)
row,IC50 [nM],SMILES
1,800 to 2000,CCc1ncncc1CNc1ncc(C#N)c(N[C@H]2C[C@H](O)C2(C)C)n1 [Cmpd 142]
2,800 to 2000,CC1(C)[C@@H](Nc2nc(NCc3cnccc3C(F)(F)F)ncc2C(F)(F)F)C[C@@H]1O [Cmpd 143]
3,800 to 2000,CC1(C)[C@H](CO)C[C@@H]1Nc1nc(NCc2c[n+]([O-])ccc2C(F)(F)F)ncc1C#N [Cmpd 145]
4,800 to 2000,Cc1cc(C(F)(F)F)c(CNc2ncc(C#N)c(N[C@H]3CC[C@@](C)(O)CC3)n2)c[n+]1[O-] [Cmpd 146]
5,100 to 800,CC1(C)C[C@H](Nc2nc(NCCc3cccc4cccnc34)ncc2C#N)CC[C@@H]1O [Cmpd 147]
6,2000 to 10000,Cc1[nH]c2ccc(C#N)cc2c1CCNc1ncc(C#N)c(N[C@H]2CC[C@@H](O)CC2)n1 [Cmpd 148]
7,2000 to 10000,Cc1[nH]c2c(F)cc(F)cc2c1CCNc1ncc(C#N)c(N[C@H]2CC[C@@H](O)CC2)n1 [Cmpd 149]
8,2000 to 10000,N#Cc1cnc(NCCc2ccc3ccccc3n2)nc1N[C@H]1CC[C@@H](O)CC1 [Cmpd 150]
9,2000 to 10000,N#Cc1cnc(NCCc2ncccc2C(F)(F)F)nc1N[C@H]1CC[C@@H](O)CC1 [Cmpd 151]
10,2000 to 10000,Cc1cnccc1CCNc1ncc(C#N)c(N[C@H]2CC[C@@H](O)CC2)n1 [Cmpd 152]
11,< 100,CC(F)(F)COc1ncncc1CNc1ncc(C#N)c(N[C@H]2CC[C@@H](O)CC2)n1 [Cmpd 153]
12,100 to 800,N#Cc1cnc(NCCc2c[nH]c3ccccc23)nc1N[C@H]1CC[C@@H](O)CC1 [Cmpd 154]
13,100 to 800,N#Cc1cnc(NCCC2C(=O)Nc3ccccc32)nc1N[C@H]1CC[C@@H](O)CC1 (some centres unmarked) [Cmpd 155]
14,800 to 2000,CC(F)(F)COc1ncncc1CNc1ncc(C#N)c(NC23CCC(O)(CC2)CC3)n1 [Cmpd 156]
15,100 to 800,C[C@@H]1CC[C@@H](Nc2nc(NCc3cncnc3OCC(C)(F)F)ncc2C#N)C[C@H]1O [Cmpd 157]
16,100 to 800,CC1(C)C[C@H](Nc2nc(NCCC3C(=O)Nc4ccccc43)ncc2C#N)CC[C@H]1O (some centres unmarked) [Cmpd 158]
